The values below come from patent US20060088899A1, “Combination chemotherapy with chlorotoxin” (priority 2002, published 2006).

Where two headings read alike, the source gives them in different places. Ends that are not written are not given here. * marks the point of attachment. Biotin = O=C1N[C@H]2[C@H](CS[C@H]2CCCCC(=O)*)N1

The test system of test [1] is D54-MG. Nature of the test: Chemotherapeutic agent cytotoxicity, CCK-8 assay. The format is cell-based, Human. Particulars: two to five days treatment. On the procedure: (§1) A tissue culture method was optimized to test the effects of various chemotherapeutic agents on multiple cancer cell lines (see Table 1). Cells were plated on 96-well microtiter tissue culture plates at a density of approximately 1000-2000 cells per well, depending on the specific cell line. Cells were allowed to adhere twenty-four hours in a 37° C., humidified cell culture incubator supplied with five percent carbon dioxide. In order to achieve a dose-response curve for each drug in each cell line, cells were treated with decreasing concentrations of a specific cytotoxic compound for two to five days. Following treatment, the cytotoxic effect of the drug was quantified using the Cell Counting Kit-8 (CCK-8) (Dojindo Inc.) according to the manufacturer's instructions. In brief, following the treatment period with the cytotoxic drug, cells were incubated with CCK-8 reagent and incubated at 37° C. for one to four hours, depending on the specific cell type. After incubation, plates were read on a microplate reader at a wavelength of 490 nm. The IC50 of each drug was calculated from a X-Y scatter plot of the negative log concentration of drug versus mean optical density (Table 2).
Background: Formazan colour is commonly taken as a measure of viable cells.

In test [2] the test system is SKMEL28. Kind of test: Chemotherapeutic agent cytotoxicity, CCK-8 assay. Particulars: two to five days treatment. The format is cell-based, Human. As to the method: as §1
The subject of test [3] is SKMEL31. Kind of test: Chemotherapeutic agent cytotoxicity, CCK-8 assay. The format is cell-based. Particulars: Homo sapiens, 120 h, two to five days treatment. On the procedure:
as §1

Test [4] concerns U251. Nature of the test: Chemotherapeutic agent cytotoxicity, CCK-8 assay. The conditions noted are these: Homo sapiens, U-251, 120 h, two to five days treatment. The format is cell-based. As to the method: as §1
For test [5], the system named is PC-3. Nature of the test: Chemotherapeutic agent cytotoxicity, CCK-8 assay. The format is cell-based. Particulars: Homo sapiens, 120 h, two to five days treatment. As to the method: as §1
Test [6] deals with U251 glioma flank tumors. Kind of test: Temodar plus chlorotoxin in glioma flank tumor model. The format is in vivo, Nude mice. Particulars: i.p., temodar 13.2 mg/kg, chlorotoxin 0.080 mg/kg. On the procedure:
The purpose of this study was to determine whether hydroxyurea or temodar combined with chlorotoxin were sufficient to inhibit tumor growth as indicated from in vitro studies with glioma cell lines. […] Combination treatment with chlorotoxin with hydroxyurea or temodar in mice with glioma flank tumors was compared to the treatment group of hydroxyurea or temodar alone and saline alone. Hydroxyurea and temodar dosage was based on the lowest dosage (10 mg/kg body weight) used in previous studies to determine clearance from the body in the treatment of sickle cell disease paradigm in nude mice (Iyamu et al. (2001) Chemotherapy 47, 270-278). […]
Mice with established flank tumors were each treated with 0.100 ml injection (i.p) of sterilized solutions consisting of either of saline, saline and hydroxyurea or temodar (13.2 mg/kg body weight), or saline, hydroxyurea or temodar (13.2 mg/kg) and chlorotoxin (0.080 mg/kg body weight). Tumor volume was calculated based on the measurements with the same set of calipers on the indicated days by determining the length×width×height of the tumor of non-anesthetized mice. […] Statistical significance was determined according to a one-way ANOVA test.

Test [7] deals with U251 and PC3 cells. Particulars: alanine-substituted 9-mers versus native 9-mer.
Test [8] has as its system D54MG Glioblastoma cells. The conditions noted are these: for ^3H-Thymidine uptake ± SD (CPM): 24 hours incubation. As to the method:
The purpose of this experiment was to determine if the proliferation D54MG Glioblastoma cells, as measured by ^3H-thymidine uptake, is effected by Peptide 21, a segment of the full chlorotoxin sequence. The sequence of peptide 21 and its relation to chlorotoxin is shown in the sequence below:
D54MG cells were plated in a 24 well plate at 100,000 cells/ml/well using five rows of four wells for each concentration. The cells were allowed to adhere in normal media for twenty-four hours at 37° C. and 5% carbon dioxide. TM-701 was diluted to a […] stock solution and added to each row at the concentrations of 0, 20, 80, 160 and 320 nM.
The cells and peptide 21 were allowed to incubate for 24 hours at 37° C. and 5% carbon dioxide. After twenty-four hours, the cells were rinsed two times with warm PBS. Normal media was added back to the cells at 1 ml/well. One μCi of ^3H-thymidine was added to each well (1 μl of 1 mCi/ml ^3H-thymidine to each well). The plate was incubated for two hours at 37° C. The media and thymidine were removed and the wells were rinsed with ice-cold phosphate-buffered saline three times. To each well was added 1 ml of 0.3 N NaOH. The plate was incubated in the 37° C. incubator for thirty minutes. Each well of 0.3 N NaOH was pipetted up and down three to four times and removed from the plate and the solution was placed in scintillation vials for counting. Scintillation fluid at four times the amount of sample was added to the vials (4 ml). Each vial was counted on the scintillation counter for one minute.

Test [9] relates to PC3 human prostate cancer cells. The format is binding. The text has this: In order to compare binding of the short scorpion toxins, the regions homologous to peptide 21 of small toxin and probable toxin LQH-8/6 were synthesized and biotinylated for analysis in the chlorotoxin binding assay (see Table 8 for amino acid sequences of the peptides).
The subject of test [10] is crayfish. Kind of test: Crayfish paralysis assay. The format is in vivo. The conditions noted are these: 10-mer peptides.
Where [11] appears, read: Homo sapiens, D54MG, 120 h, read-out: IC50.
[12] abbreviates: Homo sapiens, SK-MEL-28, 120 h, read-out: IC50.
Setting [13] is: PC3 cells, biotinylated peptides.

As for `O=c1[nH]cc(F)c(=O)[nH]1` [5-Fluorouracil, fluorouracil], the IC50 – broadly, the concentration needed to halve the response being measured – in test [1] (setting [11]) turned out to be 1.5 µg/mL.
As to `N.N.[Cl][Pt][Cl]` [Cisplatin, cis-diamminedichloroplatinum], the IC50 worked out at 10 µg/mL in test [1] and 8 µg/mL in test [2].
Turning to `COc1cccc2c1C(=O)c1c(O)c3c(c(O)c1C2=O)C[C@@](O)(C(=O)CO)C[C@@H]3O[C@H]1C[C@H](N)[C@H](O)[C@H](C)O1` [Doxorubicin, hydroxyl daunorubicin], the IC50 in test [3] was found to be 0.035 µg/mL; in test [4] it was 0.03 µg/mL; in test [1] (setting [11]), 0.06 µg/mL; in [2] (setting [12]), 0.04 µg/mL.
Consider `NC(=O)NO` [Hydroxyurea, hyroxycarbamide], for which the IC50 in test [5] came out at 35000 µM.
With `CC(=O)O[C@H]1C(=O)[C@@]2(C)[C@H]([C@H](OC(=O)c3ccccc3)[C@]3(O)C[C@H](OC(=O)[C@H](O)[C@@H](NC(=O)c4ccccc4)c4ccccc4)C(C)=C1C3(C)C)[C@]1(OC(C)=O)CO[C@@H]1C[C@@H]2O` [Paclitaxel, paclitaxel], the IC50 worked out at 0.025 µM in test [3], 0.008 µM in test [4] and 0.0105 µM in test [1] (setting [11]).
For the molecule `Cn1nnc2c(C(N)=O)ncn2c1=O` [Temodar, temozomide], the IC50 in test [3] worked out at 150 µM; in test [4] it was 150 µM; in [1] (setting [11]), 120 µM; in [2] (setting [12]), 30 µM. The “growth of the xenografted tumor (percent change of tumor volume)” value in [6] was “little effect”.
On to Biotin-TDHAMARKS [Peptide 21a-A4], for which the “binding of the peptide to cells” value in [7] is listed as “may be equal to or greater than chlorotoxin itself”.
For Biotin-TTDHQMARKS [peptide 21], the “uptake of ^3H-thymidine, dose dependence” value in test [8] (0 to 320 nM) is listed as “decreases in a does-dependent manner”. Further, the “^3H-Thymidine uptake ± SD (CPM)” value in test [8] (20 nM) came out at 7795 ± 634 CPM; in test [8] (80 nM) it was 7412 ± 630 CPM; in test [8] (160 nM) it was 6983 ± 329 CPM; in test [8] (320 nM) it was 5782 ± 886 CPM. Moreover, in [9], the binding was 232.50 % of background levels. Also, in [10], the paralysis of crayfish entry was “effective”.
As for “TTDPQMSKK [Peptide 21ST, biotinylated region of small toxin homologous to peptide 21]”, the binding in test [9] (setting [13]) is recorded as 225.26 % of background levels.
For the molecule “TTDQQMTKK [Peptide 21LQ, biotinylated region of probable toxin LQH-8/6 homologous to peptide 21]”, the binding in test [9] (setting [13]) is 242.32 % of background levels.
Same read-out and setting: the result for “negative peptide (GKCYGPQCLC; Chlorotoxin; listed as Leiurus quinquestriatus)” reads 110 % of background levels.
